In patent US20120196927A1, “PROPHYLACTIC AND/OR THERAPEUTIC AGENT FOR METABOLIC SYNDROME” (priority 2009, published 2012):

Experiments:
Format in all cases: in vivo, mouse
[1] = system: GLUT4, Adiponectin, TNF-α, MCP-1, IL-6, PPARγ, aP2, LPL, Perilipin genes; experiment: Diabetes model mice: mRNA expression in the white adipose tissue (real time RT-PCR); details: ob/ob mice, Vehicle = 1.00, nobiletin 200 mg/kg/day, Pioglitazone 30 mg/kg/day, 5 weeks
Experimental: (§1) The effects by nobiletin ingestion to the mRNA expression in the white adipose tissue and the liver were measured (n=10).
(§2) After the termination of the administration period for 5 weeks, mRNA expression levels of respective genes shown in the table 10 were determined by using real time RT-PCR method. The real time RT-PCR was carried out according to an operation manual provided by ISOGEN (NIPPON GENE CO., LTD); RNA was extracted from the white adipose tissue and the liver. Next, cDNA was prepared from using 1 μg of RNA by using Reverse Transcription System kit (Promega Corp., USA). Next, suitable primers for the above-mentioned genes were prepared according to the operation manual provided by FastStart universal SYBR (a registered trademark) Greenmaster PCR KIT agent (Roche Diagnostics K. K., Germany).
(§3) Real time PCR system 7700HT (Applied Biosytems, USA) was used for the determination to carry out the real time PCR by using the cDNAs as templates. Each reaction conditions were set according to the manual of the PCR KIT. Quantitative analysis of the RNA amount was carried out based on comparative Ct method by using glyceraldehyde 3-phosphate dehydrogenase (GAPDH) as the standard reference.

male C57BL/6 mice [2] = experiment: Nobiletin, obesity-induced mice: tissue weight; details: HFD obesity-induced mice
Excerpt: (§4) Six weeks age of male C57BL/6 mice were preliminary reared for 1 week (−9 to −8 week); then classified into 4 groups (n=9 in each group). LFD was given to one group and HFD was given to other 3 groups for 8 weeks (−8 to +5 week). From 8 weeks (15 week age) to 13 weeks, each group was given the following agents per os for 5 weeks in everyday. In below, the LFD administration group was defined that they ingested LFD; the HFD administration group is defined that they ingested the HFD without nobiletin. The compositions of the LFD and HFD are the same as those used in the Example 3.
(§5) To both of the LFD administration group and the HFD administration group, 0.3% CMC aqueous solution was given at the amount of 0.01 mL/g body weight. […] The group to which nobiletin was given at the amount of 10 mg/kg/day was referred to as “No10 administration group; the abbreviated as HFD+No 10” and another group to which nobiletin was given at the amount of 100 mg/kg/day was referred to as “No 100 administration group; abbreviated as HFD+No 100”. The schedule of the feed ingestion and administration of the agent for the above-mentioned 4 groups were schematically shown in FIG. 12A.

male C57BL/6 mice [3] = experiment: Nobiletin, obesity-induced mice: body weight and ingestion amount; details: for Body weight: HFD obesity-induced mice; for Ingestion amount, [Final Average]: average of 5 weeks; for Body weight, [Final gain]: gained amount during 0 to +5 weeks; for Ingestion amount: per mouse in 24 hrs
Excerpt: as §4, §5
In the table, [Final gain] means gained amount during 0 to +5 weeks. […] By this, it was shown that nobiletin has the effect to suppress the body weight gain after the obesity induction by ingesting the high fat diet.
The ingestion amount of each mouse was measured everyday from 1 to 8 day (0 week) in the beginning of the agent administration. The ingested amount in 24 hrs was measured per cage, and then the average ingestion amount (g) per mouse was calculated. The date of day 0 means that of the previous day of the administration beginning. After 2 weeks from the administration, it was measured twice a week. [Final average] means the average of 5 weeks.

GLUT4 protein = experiment: Diabetes model mice: GLUT4 protein expression level (Western blotting); details: ob/ob mice, nobiletin 200 mg/kg/day, Pioglitazone 30 mg/kg/day
Experimental: After finishing the experiment, the white adipose tissue and skeletal muscle were excised according to that described in the example 1, protein expression level of GLUT 4 were detected by using Western blotting method. The expression levels of GLUT4 protein were determined by using Na^+/K^+ ATPase α-1 protein as an internal reference.

[4] = system: gluconeogenesis-related genes PEPCK, G6Pase; experiment: Diabetes model mice: mRNA expression in the liver (real time RT-PCR); details: ob/ob mice, Vehicle = 1.00, nobiletin 200 mg/kg/day, Pioglitazone 30 mg/kg/day, 5 weeks
Experimental: as §1, §2, §3

[5] = system: adipose cells of the white adipose tissue; experiment: Diabetes model mice: size of adipose cells of the white adipose tissue; details: 200 mg/kg of nobiletin
[6] = nobiletin 10 mg/kg/day p.o. 5 weeks
[7] = nobiletin 100 mg/kg/day p.o. 5 weeks
[8] = nobiletin 10 mg/kg/day p.o., HFD
[9] = nobiletin 100 mg/kg/day p.o., HFD
[10] = Western blotting, Vehicle = 1.00, 5 weeks

COc1ccc(-c2cc(=O)c3c(OC)c(OC)c(OC)c(OC)c3o2)cc1OC [nobiletin]
Gene expression level (ratio), [W]Adiponectin [1]: 1.54 ± 0.04 | Gene expression level (ratio), [W]GLUT4 [1]: 1.88 ± 0.12 | Gene expression level (ratio), [W]IL-6 [1]: 0.55 ± 0.03 | Gene expression level (ratio), [W]LPL [1]: 1.50 ± 0.18 | Gene expression level (ratio), [W]MCP-1 [1]: 0.64 ± 0.02 | Gene expression level (ratio), [W]PPARγ [1]: 1.79 ± 0.02 | Gene expression level (ratio), [W]Perilipin [1]: 1.61 ± 0.17 | Gene expression level (ratio), [W]TNF-α [1]: 0.80 ± 0.048 | Gene expression level (ratio), [W]aP2 [1]: 1.10 ± 0.01 | Tissue Weight, Kidney (male C57BL/6 mice [2]; [6]): 0.34 ± 0.02 g/100 g of body weight | Tissue Weight, Liver (male C57BL/6 mice [2]; [6]): 1.28 ± 0.08 g/100 g of body weight | Tissue Weight, White adipose tissue (male C57BL/6 mice [2]; [6]): 1.96 ± 0.28 g/100 g of body weight | Tissue Weight, White adipose tissue [Periphery of genitals] (male C57BL/6 mice [2]; [6]): 1.23 ± 0.19 g/100 g of body weight | Tissue Weight, White adipose tissue [Periphery of intestine] (male C57BL/6 mice [2]; [6]): 0.27 ± 0.04 g/100 g of body weight | Tissue Weight, White adipose tissue [Periphery of kidney] (male C57BL/6 mice [2]; [6]): 0.47 ± 0.07 g/100 g of body weight | Tissue Weight, Kidney (male C57BL/6 mice [2]; [7]): 0.35 ± 0.01 g/100 g of body weight | Tissue Weight, Liver (male C57BL/6 mice [2]; [7]): 1.40 ± 0.04 g/100 g of body weight | Tissue Weight, White adipose tissue (male C57BL/6 mice [2]; [7]): 1.52 ± 0.15 g/100 g of body weight | Tissue Weight, White adipose tissue [Periphery of genitals] (male C57BL/6 mice [2]; [7]): 0.92 ± 0.09 g/100 g of body weight | Tissue Weight, White adipose tissue [Periphery of intestine] (male C57BL/6 mice [2]; [7]): 0.20 ± 0.02 g/100 g of body weight | Tissue Weight, White adipose tissue [Periphery of kidney] (male C57BL/6 mice [2]; [7]): 0.36 ± 0.03 g/100 g of body weight | Body weight (male C57BL/6 mice [3]; [6]): 33.14 ± 1.02 g | Body weight (male C57BL/6 mice [3]; nobiletin 10 mg/kg/day p.o., 0 weeks after administration): 31.07 ± 0.78 g | Body weight (male C57BL/6 mice [3]; nobiletin 10 mg/kg/day p.o., 1 week): 31.10 ± 0.72 g | Body weight (male C57BL/6 mice [3]; nobiletin 10 mg/kg/day p.o., 2 weeks): 32.10 ± 0.85 g | Body weight (male C57BL/6 mice [3]; nobiletin 10 mg/kg/day p.o., 3 weeks): 33.01 ± 1.01 g | Body weight (male C57BL/6 mice [3]; nobiletin 10 mg/kg/day p.o., 4 weeks): 32.58 ± 0.97 g | Body weight (male C57BL/6 mice [3]; [7]): 31.88 ± 0.68 g | Body weight (male C57BL/6 mice [3]; nobiletin 100 mg/kg/day p.o., 0 weeks after administration): 31.21 ± 0.60 g | Body weight (male C57BL/6 mice [3]; nobiletin 100 mg/kg/day p.o., 1 week): 29.93 ± 0.52 g | Body weight (male C57BL/6 mice [3]; nobiletin 100 mg/kg/day p.o., 2 weeks): 30.61 ± 0.60 g | Body weight (male C57BL/6 mice [3]; nobiletin 100 mg/kg/day p.o., 3 weeks): 31.62 ± 0.62 g | Body weight (male C57BL/6 mice [3]; nobiletin 100 mg/kg/day p.o., 4 weeks): 31.28 ± 0.59 g | Ingestion amount, [Final Average] (male C57BL/6 mice [3]; [8]): 2.58 ± 0.1 g | Ingestion amount, [Final Average] (male C57BL/6 mice [3]; [9]): 2.61 ± 0.08 g | Body weight, [Final gain] (male C57BL/6 mice [3]; [8]): 2.08 ± 0.69 g | Body weight, [Final gain] (male C57BL/6 mice [3]; [9]): 0.67 ± 0.37 g | Ingestion amount (male C57BL/6 mice [3]; day 0 (previous day of administration beginning), nobiletin 10 mg/kg/day group): 2.36 ± 0.04 g | Ingestion amount (male C57BL/6 mice [3]; day 0 (previous day of administration beginning), nobiletin 100 mg/kg/day group): 2.36 ± 0.04 g | Ingestion amount (male C57BL/6 mice [3]; day 1, nobiletin 10 mg/kg/day p.o., HFD): 2.28 ± 0.13 g | Ingestion amount (male C57BL/6 mice [3]; day 1, nobiletin 100 mg/kg/day p.o., HFD): 1.57 ± 0.09 g | Ingestion amount (male C57BL/6 mice [3]; day 2, nobiletin 10 mg/kg/day p.o., HFD): 1.85 ± 0.19 g | Ingestion amount (male C57BL/6 mice [3]; day 2, nobiletin 100 mg/kg/day p.o., HFD): 1.71 ± 0.13 g | Ingestion amount (male C57BL/6 mice [3]; day 3, nobiletin 10 mg/kg/day p.o., HFD): 1.85 ± 0.19 g | Ingestion amount (male C57BL/6 mice [3]; day 3, nobiletin 100 mg/kg/day p.o., HFD): 1.71 ± 0.13 g | Ingestion amount (male C57BL/6 mice [3]; day 4, nobiletin 10 mg/kg/day p.o., HFD): 2.27 ± 0.28 g | Ingestion amount (male C57BL/6 mice [3]; day 4, nobiletin 100 mg/kg/day p.o., HFD): 1.83 ± 0.15 g | Ingestion amount (male C57BL/6 mice [3]; day 5, nobiletin 10 mg/kg/day p.o., HFD): 1.78 ± 0.21 g | Ingestion amount (male C57BL/6 mice [3]; day 5, nobiletin 100 mg/kg/day p.o., HFD): 1.59 ± 0.20 g | Ingestion amount (male C57BL/6 mice [3]; day 6, nobiletin 10 mg/kg/day p.o., HFD): 2.36 ± 0.14 g | Ingestion amount (male C57BL/6 mice [3]; day 6, nobiletin 100 mg/kg/day p.o., HFD): 2.04 ± 0.09 g | Ingestion amount (male C57BL/6 mice [3]; day 7, nobiletin 10 mg/kg/day p.o., HFD): 2.99 ± 0.07 g | Ingestion amount (male C57BL/6 mice [3]; day 7, nobiletin 100 mg/kg/day p.o., HFD): 2.62 ± 0.12 g | Ingestion amount (male C57BL/6 mice [3]; day 8, nobiletin 10 mg/kg/day p.o., HFD): 2.12 ± 0.32 g | Ingestion amount (male C57BL/6 mice [3]; day 8, nobiletin 100 mg/kg/day p.o., HFD): 2.43 ± 0.03 g | Gene expression level (ratio), Skeletal muscle (GLUT4 protein) (GLUT4 protein; [10]): 6.32 | Gene expression level (ratio), White adipose tissue (GLUT4 protein) (GLUT4 protein; [10]): 1.75 | GLUT4 protein expression amount in the skeletal muscle, times higher than vehicle administration group (GLUT4 protein): about 6 times | GLUT4 protein expression level in the white adipose tissue, times higher than vehicle administration group (GLUT4 protein): 1.7 times | Gene expression level (ratio), [L]G6Pase [4]: 0.29 ± 0.01 | Gene expression level (ratio), [L]PEPCK [4]: 0.34 ± 0.03 | shrinking of enlarged adipose cells of the white adipose tissue [5]: fails to shrink the adipose cells
